The text below walks through data of patent US20150064172A1, “METHODS OF TREATING A DISEASE OR DISORDER ASSOCIATED WITH BRUTON'S TYROSINE KINASE” (Celgene Avilomics Research, Inc., priority 2013, published 2015).

Structures are written as SMILES. Like-named read-outs stand apart in the source and are kept apart here.

Series [1] is described as follows: Environmental stability (heat, acid, base). The class given is physicochemical.
The next series concerns CLL. Description: Compound 1 besylate monotherapy in patients with CLL. The series is classed as in vivo.
The nature of a further series: Solubility. The series is classed as physicochemical.
In the next series the test system is relapsed/refractory CLL. Particulars: cited from earlier work.
Where [2] appears, read: monotherapy, as of Sep. 11, 2012.
Setting [3] is: 25 mg for 21 days of every 28-day cycle.

For `C=CC(=O)Nc1cccc(Nc2nc(Nc3ccc(OCCOC)cc3)ncc2F)c1.O=S(=O)(O)c1ccccc1` [Compound 1 besylate, N-(3-(5-fluoro-2-(4-(2-methoxyethoxyl)phenylamino)pyrimidin-4-ylamino)phenyl)acrylamide benzenesulfonic acid salt], the “environmental instabilities (i.e. heat, acid, base)” value in series [1] is given as “no environmental instabilities”. Further, in the series on CLL (setting [2]), the “patients who experienced early increases in absolute lymphocyte counts (ALC)” value is on record as 28 of 33; the “patients who experienced reductions in lymph node size” value is 15 of 23; the “patients with CLL who experienced stable disease and continue on treatment” value is reported as 35 out of 43. Besides, the solubility in “Solubility” (ethanol, organic solvent or mixture, read-out: solubility in ethanol) was around 10 mg/mL. In “Solubility” (water, read-out: solubility in water), the solubility is around 0.16 mg/mL.
Consider `C=CC(=O)Nc1cccc(Nc2nc(Nc3ccc(OCCOC)cc3)ncc2F)c1` [Compound 1, N-(3-(5-fluoro-2-(4-(2-methoxyethoxyl)phenylamino)pyrimidin-4-ylamino)phenyl)acrylamide], for which, in the series on CLL (single agent), the “maximum tolerated dose (MTD)” value was “has not yet been reached”.
On to `Nc1cccc2c1CN(C1CCC(=O)NC1=O)C2=O` (centres unmarked) [lenalidomide, 3-(4-amino-1-oxo-1,3-dihydro-2H-isoindol-2-yl)piperidine-2,6-dione], for which, in the series on relapsed/refractory CLL (setting [3]), the “Complete Response [CR]” value is listed as 18%, the “Partial Response [PR]” value is on record as 36%, the “median progression-free survival (PFS) time” value is 19.4 months and the “median time to best response” value is 5.9 months. In addition, the overall response with relapsed/refractory CLL (setting [3]) was 53%. The “Clinical responses (CR or PR)” value in the series on relapsed/refractory CLL (subjects refractory to fludarabine) is 30%. For the same molecule, the “Clinical responses (CR or PR)” value in the series with relapsed/refractory CLL (subjects with del (11)(q23) and/or del (17)(p13.1) adverse cytogenetics) is on record as 47%.
